{"source": "patent US11484543B2", "about": "“Compositions and methods for diagnosing and treating diseases and disorders associated with mutant KCNJ5” (The Rockefeller University, priority 2017, dated 2022)", "target": "T1, KCNJ5^WT (Homo sapiens, UniProt P48544)", "T1 construct": "expressed in transfected cells", "T1 sequence (P48544 1-419)": "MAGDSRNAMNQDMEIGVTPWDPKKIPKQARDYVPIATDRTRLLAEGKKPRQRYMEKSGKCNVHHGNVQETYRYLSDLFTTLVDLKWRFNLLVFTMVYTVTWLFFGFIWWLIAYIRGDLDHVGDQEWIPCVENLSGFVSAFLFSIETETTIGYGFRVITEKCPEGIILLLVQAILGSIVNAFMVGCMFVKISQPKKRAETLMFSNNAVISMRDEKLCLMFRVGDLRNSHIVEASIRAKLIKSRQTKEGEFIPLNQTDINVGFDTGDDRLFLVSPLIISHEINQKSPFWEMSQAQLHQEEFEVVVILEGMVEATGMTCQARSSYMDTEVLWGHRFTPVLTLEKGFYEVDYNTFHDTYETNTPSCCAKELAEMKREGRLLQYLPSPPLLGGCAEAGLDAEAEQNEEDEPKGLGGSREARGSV", "test": "Membrane potential assay (FLIPR dye) in inducible KCNJ5^WT HEK293 cells", "assay_type": "cell-based", "conditions": "tested as in FIG. 7 (FIGS. 9 and 10)"}
{"substance": "N-demethyl-N-isobutyl-8,9-anhydroerythromycin A 6,9-hemiacetal [PLUX37]", "values": [{"measurement": "inhibition of KCNJ5^WT by synthesized macrolide derivatives", "value": "no inhibition"}]}
